As usually defined, the pEC50 is the negative decadic logarithm of the EC50, by convention in mol/L. Usually CC50 stands for the concentration at which the toxic effect on the cells reaches its halfway point. Read a high CC50 as better tolerance by the cells. Broadly, the pIC50 is the IC50 on a negative log10 scale, so that one unit is a factor of ten. Low values mean a high IC50, high ones a low IC50.

pEC50, pIC50: −log10 of the molar value. Values joined by “and” are separate entries in the source; they are usually repeats but may differ in a detail not shown here. Equal entries are not always repeated.

Consider five compounds from patent US20250326725A1, “PI4-Kinase Inhibitors and Methods of Using the Same” (The Board of Trustees of the Leland Stanford Junior …, priority 2019, published 2025).

For one data set, the system named is EV68. Put plainly: EV68 antiviral assay (EC50). It counts as cell-based.
A further data set concerns cells (EV71 assay). Put plainly: Cell toxicity (CC50) in EV71 assay.
Data set [1] is described as follows: Cell toxicity (CC50) in EV71 assay. As to conditions: EV71 CC50.
A further data set deals with HCV. Nature of the data set: Anti-HCV assay (EC50). It counts as cell-based. As to conditions: Hepatitis C virus, read-out: HCV EC50. Here is the method: Anti-HCV assay: Anti-HCV assays are performed as described by Cho et al. “Identification of a class of HCV inhibitors directed against the nonstructural protein NS4B.” Sci. Transl. Med. 2011; 2(15):15ra6.
The target in another data set is T1, PI4KIIIbeta (Bos taurus, UniProt O02810).
T1 construct: made in house; host or cells: COS-7 cells, transient transfection, anti-HA immunoprecipitate on protein G Sepharose beads
Nature of the data set: PI-kinase assay, PI4KIIIbeta (Table 4). The data set is classed as biochemical, bovine. Here is the method:
(§1) PI-kinase assay: Compounds are tested in C.1.1. PT kinase assays as described by Shokat et al., “A membrane capture assay for lipid kinase activity.” Nat. Protoc. 2007; 2(10):2459-66.
(§2) General methods of materials: In the assays described here, p110α-p85 complex and p110γ were acquired from Millipore. Assays were performed with La-phosphatidylinositol (Avanti) as described in Knight et al. Nat Protoc. 2007; 2 (10):2459-66. Inhibitor series were prepared 10% DMSO as 5× stocks for the assay. Assays of HsVps34 were performed as described in Knight et al, except that the final assay buffer composition used was changed to 20 mM HEPES 7.5, 100 mM NaCl, 3 mM MgCl, 1 mg/mL PI and 44 nM hvps34 was used in the assay. […] COS-7 cells were cultured in 10 cm dishes and transfected at 70% confluence with 10 μg of plasmid DNA (HA-tagged bovine PI4KIIIβ. HA-tagged human PI4KIIIα) using Lipofectamine 2000 and 5 ml Opti-MEM following the manufacturer's instructions. After 5 hours the transfection medium was replaced with 10 ml complete DMEM. 36 hrs post transfection, cells were washed once with 5 ml PBS (pH 7.4) and lysed in 1 ml of lysis buffer (1) on ice. Lysates were collected by scraping and after 15 min they were centrifuged at 13.000 rpm for 10 min. To the lysates was added 200 gi of protein G Sepharose 4 fast flow beads that were prewashed with PBS and lysis buffer and 2 sg of anti-HA antibody. The tubes were then incubated overnight at 4 degrees C. in a tube rotator. The Sepharose beads in the lysate were washed twice with 150 mM NaCl in RIPA buffer, twice with RIPA buffer and once with kinase buffer (50 mM Tris/HCl, pH 7.5, 20 mM MgCl2, 1 mM EFTA, 1 mM PtdIns, 0.4% Triton X-100, 0.5 mg/mL BSA) and finally the beads were resuspended in 200 μL kinase buffer. Kinase reactions were run in a mixture of 45 μL of PI buffer (1 mM P1 in kinase buffer), 10 μL of immunoprecipitated beads, 2 µL of inhibitors (dissolved and diluted in DMSO) or DMSO and 5 μL of [γ-^32P]-ATP (1 mM and 2 μCi/tube). The immunoprecipitates in PI buffer were pre-incubated with the drugs for 20 min prior the initiation of kinase reaction by adding ATP and the reactions were carried out for 30 min in 15 ml polyproplyene tubes. Reactions were terminated by addition of 3 ml of CHCl3:CH3OH:HCl (200:100:0.75) followed by 0.6 ml of 0.61N HCl to induce phase separation. The mixtures were vortexed, centrifuged at 2000 rpm for 2 min and the upper phase was discarded. To the lower phase was added 1.5 ml of CHCl3:CH3OH:0.6N HCl (3:48:47) and the mixture vortexed and centrifuged at 2000 rpm for 2 ruin. The lower phase was then transferred to counting vials and evaporated. Samples were counted in a scintillation beta counter after adding 5 ml of Instafluor (Perkin-Elmer).
(§3) Selected compounds of Tables 1-3 were prepared and tested for inhibition activity in a variety of kinase assays.

Data set [2] can be described thus: Cell toxicity (CC50) in EV68 assay. The conditions noted are these: EV68 CC50.
The nature of data set [3]: Cell toxicity (CC50) in JC virus assay.
The nature of data set [4]: Microsomal stability, human liver microsomes. It counts as in vitro ADME. The conditions noted are these: for half-life: read-out: HLM/MLM (t ½ min): HLM. A general note: Liver microsomes are vesicles of endoplasmic reticulum, rich in cytochrome P450 enzymes.
In data set [5] the test system is JC virus (Polyomaviridae). Put plainly: JC virus antiviral assay (EC50). It counts as cell-based. As to conditions: JC polyomavirus.
Data set [6] can be described thus: Cell toxicity (CC50) in HRV assay. The conditions noted are these: human, HRV CC50.
The next data set concerns HRV. Put plainly: Rhinovirus antiviral assay (EC50). It counts as cell-based. As to conditions: Human rhinovirus sp.
The next data set concerns the target T2, PI4KIIIalpha (Homo sapiens, UniProt P42356).
T2 construct: made in house; host or cells: COS-7 cells, transient transfection, anti-HA immunoprecipitate on protein G Sepharose beads
Put plainly: PI-kinase assay, PI4KIIIalpha (Table 4). It counts as biochemical. Here is the method:
as §1, §2, §3

Data set [7] can be described thus: Microsomal stability, mouse liver microsomes. The data set is classed as in vitro ADME.
Data set [8] in a line: Caco-2 permeability assay. The data set is classed as in vitro ADME. As to conditions: human, read-out: Caco2 Papp × 1e−6 cm/s. Here is the method:
Compounds of interest were tested in a variety of cell-based assays for antiviral activity.
On the technique in general: Caco-2 monolayers are a common model of the intestinal barrier.

The subject of a further data set is EV71. Nature of the data set: EV71 antiviral assay (EC50). The data set is classed as cell-based, Enterovirus 71. The conditions noted are these: Enterovirus A, EV71.
For the next data set, the system named is cells (EV68 assay). Nature of the data set: Cell toxicity (CC50) in EV68 assay.
Data set [9] concerns Human HPV (Papillomaviridae). Put plainly: Human HPV antiviral assay (EC50). It counts as cell-based, human papilloma virus. As to conditions: Human papillomavirus, read-out: Human HPV (Papillomaviridae) EC50.
A further data set relates to HeLa S3 cells. Put plainly: Cell toxicity (CC50) in HRV assay. As to conditions: human.
A short description of data set [10]: Cell toxicity (CC50) in HPV assay.
Data set [11] can be described thus: Cell toxicity (CC50) in BK virus assay.
Data set [12] concerns BK virus (Polyomaviridae). Nature of the data set: BK virus antiviral assay (EC50). It counts as cell-based. The conditions noted are these: Betapolyomavirus hominis.
In data set [13] the test system is lung cancer cell lines. Nature of the data set: PI4P levels in lung cancer cell lines. The conditions noted are these: panel of lung cancer cell lines. The data set is classed as cell-based, human. Here is the method:
(§4) Human lung cancer cells (A549, H1299, H460, H23, H2122, and H3122) were cultured in RPMI 1640 containing 10% FBS. Cells were maintained at 37° C. in an incubator with a humidified atmosphere containing 5% CO2.
(§5) To assess the anti-cancer activity of exemplary PI4K antagonists, a panel of lung cancer cell lines annotated for the presence or absence of PI4K amplifications were treated with PI4K inhibitors (IN-9, TN-10, or compound B) that have greater than 1000-fold selectivity […] PI4KIIIβ over class I and class III PI3K family members. […] IC50 values were even lower with the presence of PI4K amplifications.
(§6) PI4KIIIβ is a target in human cancers, including lung adenocarcinoma. (FIG. 1A). PI4P concentrations in H2122 cells (dots) treated in triplicate (dots) with Compound B or vehicle dimethyl sulfoxide (DMS). (FIG. 1B) Relative densities of PI4-kinase-amplified (red) and -diploid (black) human lung adenocarcinoma cell lines determined by WST-1 assays after 5 days of Compound B treatment. Results expressed relative to the lowest dose, which was set at 100%. (FIG. 1B, right panel) Half maximal inhibitory (IC50) concentrations of compound B determined from FIG. 1B, left panel. (FIG. 1C) Migrated and invaded 1-23 human lung adenocarcinoma cells in Transwell chambers were photographed (images) and counted (bar graphs) after treatment with compound B. Results expressed relative to DMSO-treated cells, which were set at 1.0. (FIG. 1C, right panel). Colonies formed by H2122 human lung cancer cells in soft agarose (FIG. 1D) and on plastic (FIG. 1E) were photographed (images) and counted (bar graphs) after 7 days of treatment with the indicated doses of compound B or vehicle DMSO (0 M). Results expressed relative to DMSO control, which were set at 1.0. PI4-kinase inhibition leads to selective cytotoxicity for cancer cells (FIG. 1F).

The subject of data set [14] is lung cancer cell lines. Nature of the data set: Colony formation in soft agar and on plastic. It counts as cell-based, human. The conditions noted are these: panel of lung cancer cell lines. Here is the method: as §4, §5, §6
Data set [15] has as its system lung cancer cell lines. Nature of the data set: Migration and invasion in Boyden chambers. The data set is classed as cell-based, human. As to conditions: panel of lung cancer cell lines. Here is the method:
as §4, §5, §6

Data set [16] deals with lung cancer cell lines. Nature of the data set: Cell proliferation in monolayer culture (WST-1). The data set is classed as cell-based, human. As to conditions: panel of lung cancer cell lines. Here is the method: as §4, §5, §6
Setting [17] is: read-out: HLM/MLM (t ½ min): MLM.
Where [18] appears, read: with ritonavir (concentration not stated), + Ritonavir, read-out: HLM/MLM (t ½ min) + Ritonavir: MLM.

T1 sequence (O02810 whole entry): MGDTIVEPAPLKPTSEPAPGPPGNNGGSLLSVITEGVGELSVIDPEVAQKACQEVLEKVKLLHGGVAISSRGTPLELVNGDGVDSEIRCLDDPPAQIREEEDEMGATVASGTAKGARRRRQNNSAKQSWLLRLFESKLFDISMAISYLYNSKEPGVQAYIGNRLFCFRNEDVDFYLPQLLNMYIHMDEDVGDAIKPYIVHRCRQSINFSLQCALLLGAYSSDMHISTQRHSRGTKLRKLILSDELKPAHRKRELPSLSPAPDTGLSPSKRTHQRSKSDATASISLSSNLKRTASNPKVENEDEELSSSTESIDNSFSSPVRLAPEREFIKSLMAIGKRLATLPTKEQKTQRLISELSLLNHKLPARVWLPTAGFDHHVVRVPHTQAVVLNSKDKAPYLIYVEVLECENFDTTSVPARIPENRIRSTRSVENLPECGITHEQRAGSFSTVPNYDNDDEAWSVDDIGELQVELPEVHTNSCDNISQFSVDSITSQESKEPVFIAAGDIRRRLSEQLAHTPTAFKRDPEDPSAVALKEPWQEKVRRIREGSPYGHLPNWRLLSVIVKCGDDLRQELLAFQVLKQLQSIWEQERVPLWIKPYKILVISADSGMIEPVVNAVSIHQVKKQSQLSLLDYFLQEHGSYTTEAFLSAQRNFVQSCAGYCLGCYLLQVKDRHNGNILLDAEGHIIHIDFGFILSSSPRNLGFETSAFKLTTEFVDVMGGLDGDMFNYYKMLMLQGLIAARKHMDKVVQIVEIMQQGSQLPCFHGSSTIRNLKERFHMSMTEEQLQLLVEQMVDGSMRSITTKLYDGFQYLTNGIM
T2 sequence (P42356 whole entry): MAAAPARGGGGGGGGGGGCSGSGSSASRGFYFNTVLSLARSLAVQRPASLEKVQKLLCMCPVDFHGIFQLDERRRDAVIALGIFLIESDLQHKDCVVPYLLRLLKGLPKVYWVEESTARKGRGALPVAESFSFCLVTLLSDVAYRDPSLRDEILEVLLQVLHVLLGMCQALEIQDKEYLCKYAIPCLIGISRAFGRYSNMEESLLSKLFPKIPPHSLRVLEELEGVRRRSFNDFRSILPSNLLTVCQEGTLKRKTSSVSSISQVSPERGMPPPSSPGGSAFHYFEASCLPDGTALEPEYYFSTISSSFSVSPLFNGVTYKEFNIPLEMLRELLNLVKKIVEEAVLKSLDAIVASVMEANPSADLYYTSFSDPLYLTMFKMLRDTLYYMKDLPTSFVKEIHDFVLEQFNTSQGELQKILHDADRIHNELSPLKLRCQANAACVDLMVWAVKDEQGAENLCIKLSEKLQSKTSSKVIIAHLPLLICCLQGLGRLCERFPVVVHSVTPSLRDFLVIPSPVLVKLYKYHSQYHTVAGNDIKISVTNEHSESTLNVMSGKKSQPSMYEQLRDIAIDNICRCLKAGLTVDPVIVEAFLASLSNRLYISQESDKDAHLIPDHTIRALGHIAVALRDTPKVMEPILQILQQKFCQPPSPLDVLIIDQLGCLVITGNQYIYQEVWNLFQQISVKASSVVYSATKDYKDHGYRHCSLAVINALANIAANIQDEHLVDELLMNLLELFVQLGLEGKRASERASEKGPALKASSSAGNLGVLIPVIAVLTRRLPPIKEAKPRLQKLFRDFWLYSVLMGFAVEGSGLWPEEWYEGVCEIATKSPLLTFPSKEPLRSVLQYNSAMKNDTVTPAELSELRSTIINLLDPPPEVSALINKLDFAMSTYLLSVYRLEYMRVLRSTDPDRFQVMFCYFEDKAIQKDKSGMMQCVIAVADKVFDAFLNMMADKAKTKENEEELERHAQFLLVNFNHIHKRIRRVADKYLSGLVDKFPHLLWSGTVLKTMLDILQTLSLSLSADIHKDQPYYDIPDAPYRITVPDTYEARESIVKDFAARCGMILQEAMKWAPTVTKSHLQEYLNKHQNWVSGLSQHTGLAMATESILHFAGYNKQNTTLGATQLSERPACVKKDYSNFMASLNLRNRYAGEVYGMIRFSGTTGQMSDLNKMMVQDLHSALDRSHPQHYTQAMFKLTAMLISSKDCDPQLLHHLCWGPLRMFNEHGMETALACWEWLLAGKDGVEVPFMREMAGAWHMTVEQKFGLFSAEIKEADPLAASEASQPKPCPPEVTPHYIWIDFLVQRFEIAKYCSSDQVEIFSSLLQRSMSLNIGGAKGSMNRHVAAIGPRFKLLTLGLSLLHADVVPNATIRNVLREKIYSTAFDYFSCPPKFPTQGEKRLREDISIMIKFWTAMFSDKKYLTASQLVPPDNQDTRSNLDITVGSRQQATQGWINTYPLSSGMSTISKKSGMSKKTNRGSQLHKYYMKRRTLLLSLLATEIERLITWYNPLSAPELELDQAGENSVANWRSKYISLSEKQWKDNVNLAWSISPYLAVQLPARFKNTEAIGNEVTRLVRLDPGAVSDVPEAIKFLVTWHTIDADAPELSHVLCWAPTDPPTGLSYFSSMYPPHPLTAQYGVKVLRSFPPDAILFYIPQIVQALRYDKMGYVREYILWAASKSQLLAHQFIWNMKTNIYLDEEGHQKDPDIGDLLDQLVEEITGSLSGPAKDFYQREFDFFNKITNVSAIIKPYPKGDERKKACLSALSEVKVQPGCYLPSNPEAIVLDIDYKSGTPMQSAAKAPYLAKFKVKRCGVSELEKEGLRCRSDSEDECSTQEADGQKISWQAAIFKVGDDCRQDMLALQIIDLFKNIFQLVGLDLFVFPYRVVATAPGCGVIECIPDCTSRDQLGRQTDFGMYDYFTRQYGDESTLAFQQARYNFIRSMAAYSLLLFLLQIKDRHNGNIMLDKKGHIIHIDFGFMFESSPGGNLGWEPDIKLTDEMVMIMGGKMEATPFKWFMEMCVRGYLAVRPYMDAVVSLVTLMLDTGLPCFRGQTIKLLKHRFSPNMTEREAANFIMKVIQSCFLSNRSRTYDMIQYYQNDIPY

For the compound `COc1ccc(-c2sc(NC(C)(C)c3ccccc3)nc2C)cc1S(=O)(=O)NC1CCN(C(C)=O)CC1` [Compound S-42], the negative-log EC50 (pEC50) is 8.72 and 8.80 in the data set with EV68; 9.15 with HCV; 5.09 in data set [5]; 9.05 in the data set on HRV; 9.52 with EV71. Also, the half-maximal cytotoxic concentration (CC50) with cells (EV71 assay) is 100 µM; in data set [1] it was 103 µM; in data set [2] it was 100 µM; in data set [3], > 150 µM; in data set [6], 100 µM. Moreover, the negative logarithm of the IC50 (pIC50) on PI4KIIIbeta is > 7.00; on PI4KIIIalpha it was < 5.00. Further, the “HLM/MLM (t ½ min) + Ritonavir: HLM” value in data set [4] is listed as 159 min. For the same compound, the half-life in data set [4] turned out to be 10 min; in data set [7] (setting [17]), 14 min; in data set [7] (setting [18]), 82 min. The Papp in data set [8] was 14 ×10⁻⁶ cm/s.

In the case of `COc1ccc(-c2sc(NC(C)(C)c3ccccn3)nc2C)cc1S(=O)(=O)Nc1c(C)cccc1F` [Compound S-45], the negative logarithm of the EC50 (pEC50) with EV68 was 8.70 and 8.54; in the data set on HCV, 9.40; in data set [9] it was 5.28; in data set [5] it was 5.33; in the data set on HRV it was 9.30; in the data set with EV71, 9.52. Further, the CC50 in the data set with cells (EV71 assay) was 77 µM; in [1], 87.3 µM; in [2], 73.2 µM; in the data set with cells (EV68 assay) it was 38 µM; in data set [3], > 150 µM; in [6], 66.2 µM. Also, the half-maximal cytotoxic concentration (CC50) in the data set with HeLa S3 cells is 52 µM; in [10], 77 µM. Moreover, the negative logarithm of the IC50 (pIC50) is > 7.00 against PI4KIIIbeta and < 5.00 at PI4KIIIalpha. In data set [4], the “HLM/MLM (t ½ min) + Ritonavir: HLM” value is 159 min. The half-life in data set [4] turned out to be 14 min; in data set [7] (setting [17]), 10 min; in data set [7] (setting [18]), 67 min.

Take `Nc1ccn(C[C@@H](CO)OCP(=O)(O)O)c(=O)n1` [PC1, cidofovir, reference compound]: the cytotoxic concentration (CC50) was > 100 µM in data set [11] and > 150 µM in data set [3]. For the same compound, the pEC50 in data set [5] is 4.53; in data set [12], 6.51.

With `Nc1nc2c(ncn2CCOCP(=O)(O)O)c(=O)[nH]1` [PC2, 9-[2-(phosphono-methoxy)ethyl]guanine, reference compound], in [9], the pEC50 was 5.55. In addition, the CC50 in data set [10] was > 150 µM.

`COc1ccc(-c2sc(NC(=O)C3CCCC3)nc2C)cc1S(=O)(=O)Nc1ccc(O)cc1` [PI4KIIIbeta-IN-9]: the PI4P levels result in the data set on lung cancer cell lines [13] is “decreased PI4P levels in a dose-dependent fashion”. In addition, the “colony formation in soft agar and on plastic” value in the data set with lung cancer cell lines [14] was “reduced”. The “migration and invasion in Boyden chambers” value with lung cancer cell lines [15] is recorded as “reduced”. In addition, in the data set on lung cancer cell lines [16], the “cell proliferation in monolayer culture” value is reported as “reduced cell proliferation in monolayer culture”.
